Measured values from US20220281848A1, “PYRAZOLE-SUBSTITUTED PYRROLIDINONES AS HERBICIDES” (FMC Corporation, priority 2019, published 2022).

Test system: plants
Assay: Test D pre-emergence, other plants of Tables D1 and D3
Assay type: in vivo
Settings: pre-emergence, 100=total damage, 0=no damage
Summary of the method: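 Damage was rated visually from 0 (none) to 100 (total), at 20 DAA for pre-emergence and 15 d for post-emergence. Plants grew from safener-treated seed in a glasshouse at 24/18° C. or 20/16° C. day/night, 65% humidity, watered twice daily.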

In the case of `CN1CC(c2cc(C(F)(F)F)n(C)n2)C(C(=O)Nc2cccc(F)c2F)C1=O` (racemic) [Compound 3], the “damage to plant, ALOMY” value (rate 15, 20 DAA) is reported as 0, the “damage to plant, AVEFA” value (rate 15, 20 DAA) is reported as 0 and the “damage to plant, BEAVA” value (rate 15, 20 DAA) is reported as 0. The “damage to plant, BROTE” value (rate 15, 20 DAA) was 0, the “damage to plant, BRSNN” value (rate 15, 20 DAA) was 0 and the “damage to plant, CHEAL” value (rate 15, 20 DAA) was 0. For the same compound, the “damage to plant, GALAP” value (rate 15, 20 DAA) was 0, the “damage to plant, HORVW” value (rate 15, 20 DAA) was 0 and the “damage to plant, KCHSC” value (rate 15, 20 DAA) was 0. The “damage to plant, LOLPE” value (rate 15, 20 DAA) was 0, the “damage to plant, POAAN” value (rate 15, 20 DAA) was 0 and the “damage to plant, POLCO” value (rate 15, 20 DAA) was 0. For the same compound, the “damage to plant, SINAR” value (rate 15, 20 DAA) was 0, the “damage to plant, STEME” value (rate 15, 20 DAA) was 0 and the “damage to plant, VERPE” value (rate 15, 20 DAA) was 0. The “damage to plant, ALOMY” value (rate 30, 20 DAA) was 0, the “damage to plant, AVEFA” value (rate 30, 20 DAA) was 0 and the “damage to plant, BEAVA” value (rate 30, 20 DAA) was 0. The “damage to plant, BROTE” value (rate 30, 20 DAA) was 0, the “damage to plant, BRSNN” value (rate 30, 20 DAA) was 0 and the “damage to plant, CHEAL” value (rate 30, 20 DAA) was 0. The “damage to plant, GALAP” value (rate 30, 20 DAA) was 0, the “damage to plant, HORVW” value (rate 30, 20 DAA) was 0 and the “damage to plant, KCHSC” value (rate 30, 20 DAA) was 0. For the same compound, the “damage to plant, LOLPE” value (rate 30, 20 DAA) was 0, the “damage to plant, POAAN” value (rate 30, 20 DAA) was 20 and the “damage to plant, POLCO” value (rate 30, 20 DAA) was 0. The “damage to plant, SINAR” value (rate 30, 20 DAA) was 0, the “damage to plant, STEME” value (rate 30, 20 DAA) was 0 and the “damage to plant, VERPE” value (rate 30, 20 DAA) was 0. The “damage to plant, ALOMY” value (rate 60, 20 DAA) was 0, the “damage to plant, AVEFA” value (rate 60, 20 DAA) was 0 and the “damage to plant, BEAVA” value (rate 60, 20 DAA) was 0. The “damage to plant, BROTE” value (rate 60, 20 DAA) was 0, the “damage to plant, BRSNN” value (rate 60, 20 DAA) was 0 and the “damage to plant, CHEAL” value (rate 60, 20 DAA) was 0. For the same compound, the “damage to plant, GALAP” value (rate 60, 20 DAA) was 0, the “damage to plant, HORVW” value (rate 60, 20 DAA) was 0 and the “damage to plant, KCHSC” value (rate 60, 20 DAA) was 0. The “damage to plant, LOLPE” value (rate 60, 20 DAA) was 0, the “damage to plant, POAAN” value (rate 60, 20 DAA) was 20 and the “damage to plant, POLCO” value (rate 60, 20 DAA) was 0. For the same compound, the “damage to plant, SINAR” value (rate 60, 20 DAA) was 0, the “damage to plant, STEME” value (rate 60, 20 DAA) was 0 and the “damage to plant, VERPE” value (rate 60, 20 DAA) was 0. The “damage to plant, ALOMY” value (rate 130, 20 DAA) was 0, the “damage to plant, AVEFA” value (rate 130, 20 DAA) was 0 and the “damage to plant, BEAVA” value (rate 130, 20 DAA) was 0. For the same compound, the “damage to plant, BROTE” value (rate 130, 20 DAA) was 0, the “damage to plant, BRSNN” value (rate 130, 20 DAA) was 0 and the “damage to plant, CHEAL” value (rate 130, 20 DAA) was 0. For the same compound, the “damage to plant, GALAP” value (rate 130, 20 DAA) was 0, the “damage to plant, HORVW” value (rate 130, 20 DAA) was 0 and the “damage to plant, KCHSC” value (rate 130, 20 DAA) was 0. The “damage to plant, LOLPE” value (rate 130, 20 DAA) was 0, the “damage to plant, POAAN” value (rate 130, 20 DAA) was 40 and the “damage to plant, POLCO” value (rate 130, 20 DAA) was 0. For the same compound, the “damage to plant, SINAR” value (rate 130, 20 DAA) was 0, the “damage to plant, STEME” value (rate 130, 20 DAA) was 0 and the “damage to plant, VERPE” value (rate 130, 20 DAA) was 0. The “damage to plant, ALOMY” value (rate 250, 20 DAA) was 0, the “damage to plant, AVEFA” value (rate 250, 20 DAA) was 0 and the “damage to plant, BEAVA” value (rate 250, 20 DAA) was 0. For the same compound, the “damage to plant, BROTE” value (rate 250, 20 DAA) was 0, the “damage to plant, BRSNN” value (rate 250, 20 DAA) was 0 and the “damage to plant, CHEAL” value (rate 250, 20 DAA) was 0. For the same compound, the “damage to plant, GALAP” value (rate 250, 20 DAA) was 0, the “damage to plant, HORVW” value (rate 250, 20 DAA) was 0 and the “damage to plant, KCHSC” value (rate 250, 20 DAA) was 0. For the same compound, the “damage to plant, LOLPE” value (rate 250, 20 DAA) was 0, the “damage to plant, POAAN” value (rate 250, 20 DAA) was 50 and the “damage to plant, POLCO” value (rate 250, 20 DAA) was 0. For the same compound, the “damage to plant, SINAR” value (rate 250, 20 DAA) was 0, the “damage to plant, STEME” value (rate 250, 20 DAA) was 0 and the “damage to plant, VERPE” value (rate 250, 20 DAA) was 0. The “damage to plant, ALOMY” value (rate 500, 20 DAA) was 20, the “damage to plant, AVEFA” value (rate 500, 20 DAA) was 30 and the “damage to plant, BEAVA” value (rate 500, 20 DAA) was 0. For the same compound, the “damage to plant, BROTE” value (rate 500, 20 DAA) was 0, the “damage to plant, BRSNN” value (rate 500, 20 DAA) was 0 and the “damage to plant, CHEAL” value (rate 500, 20 DAA) was 0. The “damage to plant, GALAP” value (rate 500, 20 DAA) was 0, the “damage to plant, HORVW” value (rate 500, 20 DAA) was 20 and the “damage to plant, KCHSC” value (rate 500, 20 DAA) was 0. The “damage to plant, LOLPE” value (rate 500, 20 DAA) was 50, the “damage to plant, POAAN” value (rate 500, 20 DAA) was 60 and the “damage to plant, POLCO” value (rate 500, 20 DAA) was 0. For the same compound, the “damage to plant, SINAR” value (rate 500, 20 DAA) was 0, the “damage to plant, STEME” value (rate 500, 20 DAA) was 30 and the “damage to plant, VERPE” value (rate 500, 20 DAA) was 60.
